Reference: PubChem BioAssay (NCI)
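Where inhibition never reached the appropriate level, the endpoint shown equals the highest concentration tested. Otherwise, values were interpolated linearly from a five-concentration, 48-hour dose response in 96-well plates. TGI: concentration producing complete growth inhibition.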

How the values were obtained:
Assay in all cases: DTP human tumour cell line panel, 48 h
[1] = test system: 786-0 renal
[2] = test system: A498 renal
[3] = test system: A549 NSCLC
[4] = test system: ACHN renal
[5] = test system: BT-549 breast
[6] = test system: CAKI-1 renal
[7] = test system: CCRF-CEM leukemia
[8] = test system: COLO 205 colon
[9] = test system: DU-145 prostate
[10] = test system: EKVX NSCLC
[11] = test system: HCC-2998 colon
[12] = test system: HCT-116 colon
[13] = test system: HCT-15 colon
[14] = test system: HL-60(TB) leukemia
[15] = test system: HOP-92 NSCLC
[16] = test system: HS 578T breast
[17] = test system: HT29 colon
[18] = test system: IGROV1 ovarian
[19] = test system: K-562 leukemia
[20] = test system: KM12 colon
[21] = test system: LOX IMVI melanoma
[22] = test system: M14 melanoma
[23] = test system: MALME-3M melanoma
[24] = test system: MCF7 breast
[25] = test system: MDA-MB-231 breast
[26] = test system: MDA-MB-435
[27] = test system: MDA-N
[28] = test system: NCI-H226 lung
[29] = test system: NCI-H23 lung
[30] = test system: NCI-H460 lung
[31] = test system: NCI-H522 lung
[32] = test system: NCI/ADR-RES ovarian
[33] = test system: OVCAR-3 ovarian
[34] = test system: OVCAR-4 ovarian
[35] = test system: OVCAR-5 ovarian
[36] = test system: OVCAR-8 ovarian
[37] = test system: PC-3 prostate
[38] = test system: RPMI-8226 leukemia
[39] = test system: RXF 393 renal
[40] = test system: SF-268 CNS
[41] = test system: SF-295 CNS
[42] = test system: SF-539 CNS
[43] = test system: SK-MEL-2 melanoma
[44] = test system: SK-MEL-28 melanoma
[45] = test system: SK-MEL-5 melanoma
[46] = test system: SK-OV-3 ovarian
[47] = test system: SN12C renal
[48] = test system: SNB-19 CNS
[49] = test system: SNB-75 CNS
[50] = test system: SR leukemia
[51] = test system: SW-620 colon
[52] = test system: T-47D breast
[53] = test system: TK-10 renal
[54] = test system: U251 CNS
[55] = test system: UACC-257 melanoma
[56] = test system: UACC-62 melanoma
[57] = test system: UO-31 renal
[58] = test system: HOP-62 NSCLC
[59] = test system: MOLT-4 leukemia

Measured: TGI

O=c1[nH]cc(/C=N\Nc2ccccc2)c(=O)[nH]1
> 100 µM: [1] | [2] | [3] | [4] | [5] | [6] | [7] | [8] | [9] | [10] | [11] | [12] | [13] | [14] | [15] | [16] | [17] | [18] | [19] | [20] | [21] | [22] | [23] | [24] | [25] | [26] | [27] | [28] | [29] | [30] | [31] | [32] | [33] | [34] | [35] | [36] | [37] | [38] | [39] | [40] | [41] | [42] | [43] | [44] | [45] | [46] | [47] | [48] | [49] | [50] | [51] | [52] | [53] | [54] | [55] | [56] | [57]

O=C(NCCc1ccccc1)[C@H]1CCCC[C@@H]1CCO
> 100 µM: [1] | [2] | [3] | [4] | [5] | [6] | [7] | [8] | [9] | [10] | [11] | [12] | [13] | [14] | [58] | [15] | [16] | [17] | [18] | [19] | [20] | [21] | [22] | [24] | [25] | [26] | [27] | [59] | [28] | [29] | [30] | [31] | [32] | [33] | [34] | [35] | [36] | [37] | [38] | [39] | [40] | [41] | [42] | [43] | [44] | [45] | [46] | [47] | [49] | [50] | [51] | [52] | [53] | [54] | [55] | [56] | [57]
